Assay results taken from US10544106B2, “Certain chemical entities, compositions, and methods” (NeuPharma, Inc., priority 2016, dated 2020).
pIC50: −log10 of the molar value.

Assays:
EGFR (ErbB1) L858R = EGFR (ErbB1) L858R (Homo sapiens (Human), UniProt P00533, L858R); experiment: Z'-LYTE kinase inhibition assay against EGFR L858R; assay type: biochemical; details: compound at 100 nM; ATP concentration at Km
Protocol: (§1) Inhibitory activities of compounds against BTK, EGFR T790M, EGFR L858R, and EGFR L858R/T790M were measured using Z′-LYTE® Method from Life Technologies as briefly described in the following.
(§2) Test Compounds are screened in 1% DMSO (final) in the well. For 10 point titrations, 3-fold serial dilutions are conducted from the starting concentration. All ATP Solutions are diluted to a 4× working concentration in Kinase Buffer (50 mM HEPES pH 7.5, 0.01% BRIJ-35, 10 mM MgCl2, 1 mM EGTA). Peptide/Kinase Mixtures are diluted to a 2× working concentration in the appropriate Kinase Buffers as described below. • (i) Peptide/Kinase Mixtures for measurement of EGFR (ErbB1) L858R: • The 2×EGFR (ErbB1) L858R/Tyr 04 mixture is prepared in 50 mM HEPES pH 7.5, 0.01% BRIJ-35, 10 mM MgCl2, 4 mM MnCl2. 1 mM EGTA, 2 mM DTT. The final 10 μL Kinase Reaction consists of 0.2-1.68 ng EGFR (ErbB1) L858R and 2 μM Tyr 04 in 50 mM HEPES pH 7.5, 0.01% BRIJ-35, 10 mM MgCl2, 2 mM MnCl2, 1 mM EGTA, 1 mM DTT. After the 1 hour Kinase Reaction incubation, 5 μL of a 1:64 dilution of Development Reagent B is added. • (ii) Peptide/Kinase Mixtures for measurement of EGFR (ErbB1) T790M: The 2×EGFR (ErbB1) T790M/Tyr 04 mixture is prepared in 50 mM HEPES pH 6.5, 0.01% BRIJ-35, 10 mM MgCl2, 1 mM EGTA, 0.02% NaN3. The final 10 μL Kinase Reaction consists of 3.9-30.2 ng EGFR (ErbB1) T790M and 2 μM Tyr 04 in 50 mM HEPES pH 7.0, 0.01% BRIJ-35, 10 mM MgCl2, 1 mM EGTA, 0.01% NaN3. After the 1 hour Kinase Reaction incubation, 5 μL of a 1:64 dilution of Development Reagent B is added. • (iii) Peptide/Kinase Mixtures for measurement of EGFR (ErbB1) L858R/T790M: The 2×EGFR (ErbB1) T790M L858R/Tyr 04 mixture is prepared in 50 mM HEPES pH 6.5, 0.01% BRIJ-35, 10 mM MgCl2, 1 mM EGTA, 0.02% NaN3. The final 10 μL Kinase Reaction consists of 0.38-4.22 ng EGFR (ErbB1) T790M L858R and 2 μM Tyr 04 in 50 mM HEPES pH 7.0, 0.01% BRIJ-35, 10 mM MgCl2, 1 mM EGTA, 0.01% NaN3. After the 1 hour Kinase Reaction incubation, 5 μL of a 1:64 dilution of Development Reagent B is added. • (iv) Peptide/Kinase Mixtures for measurement of BTK: The 2×BTK/Tyr 01 mixture is prepared in 50 mM HEPES pH 7.5, 0.010/BRIJ-35, 10 mM MgCl2, 1 mM EGTA. The final 10 μL Kinase Reaction consists of 1.04-10.4 ng BTK and 2 μM Tyr 01 in 50 mM HEPES pH 7.5, 0.01% BRIJ-35, 10 mM MgCl2, 1 mM EGTA. After the 1 hour Kinase Reaction incubation, 5 μL of a 1:256 dilution of Development Reagent B is added.
(§3) Reaction starts by 30-second shaking of mixture consisting of 2.5 μL 4× test compound, 5 μL 2× kinase reaction mixture and 2.5 μL 4×ATP Solution on Bar-coded Corning, low volume NBS, black 384-well plate (Corning Cat. #3676). Then the mixture is incubated for 60-minute at room temperature for the kinase reaction, followed by addition of 5 μL of a 1:1024 dilution of development reagent A and 30-second plate shake. The mixture is then incubated for another 60-minute at room temperature for development reaction. Finally fluorescence is read by plate reader.
(§4) The Z′-LYTE assay was carried out with ATP concentration at Km. The scale utilized in Tables 2-6 is as follows: ++ more than 50% inhibition and + less than 50% inhibition.

EGFR del746_750 = EGFR del746_750 (Homo sapiens (Human), UniProt P00533, DEL746-750); experiment: SelectScreen Lantha method (Eu-anti-GST antibody/tracer) for EGFR del746_750; assay type: binding; details: compound at 100 nM; read-out: % Inhibition against EGFR del745_750
Protocol: SelecteScreen's Lantha® method from Life Technologies was used to measure compound's activities in inhibition of EGFR del746_750.
Test Compounds are screened in 1% DMSO (final) in the well. For 10 point titrations, 3-fold serial dilutions are conducted from the starting concentration. • Components for EGFR del745_750: • Kinase Buffer A: 50 mM HEPES pH 7.5, 0.01% BRIJ-35, 10 mM MgCl2, 1 mM EGTA • Kinase/Antibody Mixtures for EGFR del745_ 750: EGFR del745_ 750 10 nM, Antibody: Eu-anti-GST 2 nM, Tracer 199 10 nM, Inhibitor: SB202190 88.2 nM, All Kinase/Antibody Mixtures are diluted to a 2× working concentration in the appropriate Kinase Buffer • Tracer: The 4× AlexaFluor® labeled Tracer is prepared in Kinase Buffer.
To start the measurement, the following components are added to individual wells of bar-coded, low volume, white 384-well plate (Greiner Cat. #784207): • 1. 160 nL—100× Test Compound in 100% DMSO. • 2. 3.84 μL—Kinase Buffer: • 3. 8.0 μL—2× Kinase/Antibody Mixture • 4. 4.0 μL—4× Tracer The mixture above is then shaken for 30-second following by 60-minute incubation at room temperature. Finally the plate is read on fluorescence plate reader.
as §4

EGFR (ErbB1) T790M = EGFR (ErbB1) T790M (Homo sapiens (Human), UniProt P00533, T790M); experiment: Z'-LYTE kinase inhibition assay against EGFR T790M; assay type: biochemical; details: compound at 100 nM; ATP concentration at Km
Protocol: as §1, §2, §3, §4

EGFR (ErbB1) L858R/T790M = EGFR (ErbB1) L858R/T790M (Homo sapiens (Human), UniProt P00533, L858R/T790M); experiment: Z'-LYTE kinase inhibition assay against EGFR L858R/T790M; assay type: biochemical; details: compound at 100 nM; ATP concentration at Km
Protocol: as §1, §2, §3, §4

BTK = BTK (Homo sapiens (Human), UniProt Q06187); experiment: Z'-LYTE kinase inhibition assay against BTK; assay type: biochemical; details: for inhibition at 0.1 µM: compound at 100 nM, ATP concentration at Km; for pIC50: series of concentrations, GraphPad Prism 5
Procedure, shortened: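 Z′-LYTE FRET readout: 1.04-10.4 ng BTK with 2 μM Tyr 01 peptide, ATP at Km, in 50 mM HEPES pH 7.5, 10 mM MgCl2, 1 mM EGTA, 0.01% BRIJ-35, 1% DMSO. 60 min kinase reaction at room temperature, then 60 min development; IC50 from 10-point, 3-fold titrations.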

OCI-Ly10 cells = experiment: OCI-Ly10 cell proliferation assay (Alamar Blue, 72 hours); assay type: cell-based; details: Homo sapiens
Protocol: OCI-Ly10 cells were cultured in Iscove's DMEM supplemented with 20% fetal bovine serum and 1× penicillin/streptomycin/glutamine. The cells were maintained in T175 flasks under 5% CO2 in a 37 ° C. humidified incubator for 5 days prior to plating and assay.
Cells were pooled by centrifugation (200 ref, 8 minutes) and resuspended in fresh medium to a concentration of 2.00E+05 cells/ml. 200 µl of the cell suspension was added to each well (40,000 cells/well) of a black-walled 96 well plate to which 1 μl of compound (n=3 per concentration) in 100% DMSO (0.5% final concentration) was added per well. Vehicle and cell free wells were also included in the assay. The dosed cells were cultured under normal conditions for 72 hours.
Cell proliferation is measured using the dye Alamar Blue (resazurin). Resazurin is reduced to resorufin by cellular enzymes and is fluorescent (544 nm excitation, 612 nm emission). Fluorescence intensity is proportional to cell number. Resazurin was prepared in PBS to a stock concentration of 440 μM. 40 μl of the 440 μM resazurin stock solution was added 3 hours prior to the 72 hour termination of the assay. The plate was returned to normal culture conditions and fluorescence measurements were collected using a Cytation3 multimode plate reader (Biotek) at 72 hours.
The scale utilized in Table 8 is as follows: ++ less than 50 nM and + greater than 50 nM.

Chain of BTK (Q06187 whole entry): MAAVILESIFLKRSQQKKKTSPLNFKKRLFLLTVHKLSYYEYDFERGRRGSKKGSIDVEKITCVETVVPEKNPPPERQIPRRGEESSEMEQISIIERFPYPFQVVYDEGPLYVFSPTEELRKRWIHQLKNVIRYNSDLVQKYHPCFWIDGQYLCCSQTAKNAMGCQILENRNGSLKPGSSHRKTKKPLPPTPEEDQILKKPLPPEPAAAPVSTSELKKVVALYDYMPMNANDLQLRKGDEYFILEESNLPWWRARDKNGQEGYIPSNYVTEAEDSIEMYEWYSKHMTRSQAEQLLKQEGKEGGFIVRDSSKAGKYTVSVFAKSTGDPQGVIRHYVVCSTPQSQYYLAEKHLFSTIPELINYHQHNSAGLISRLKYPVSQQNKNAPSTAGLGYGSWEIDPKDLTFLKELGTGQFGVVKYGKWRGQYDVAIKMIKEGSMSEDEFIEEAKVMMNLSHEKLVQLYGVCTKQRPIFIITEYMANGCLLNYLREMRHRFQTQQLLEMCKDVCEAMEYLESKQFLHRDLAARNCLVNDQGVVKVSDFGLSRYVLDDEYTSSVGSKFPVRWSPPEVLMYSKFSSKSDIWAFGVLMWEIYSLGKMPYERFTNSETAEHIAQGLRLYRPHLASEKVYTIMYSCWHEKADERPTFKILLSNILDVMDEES
Chain of EGFR (ErbB1) T790M (P00533 25-1210 T790M): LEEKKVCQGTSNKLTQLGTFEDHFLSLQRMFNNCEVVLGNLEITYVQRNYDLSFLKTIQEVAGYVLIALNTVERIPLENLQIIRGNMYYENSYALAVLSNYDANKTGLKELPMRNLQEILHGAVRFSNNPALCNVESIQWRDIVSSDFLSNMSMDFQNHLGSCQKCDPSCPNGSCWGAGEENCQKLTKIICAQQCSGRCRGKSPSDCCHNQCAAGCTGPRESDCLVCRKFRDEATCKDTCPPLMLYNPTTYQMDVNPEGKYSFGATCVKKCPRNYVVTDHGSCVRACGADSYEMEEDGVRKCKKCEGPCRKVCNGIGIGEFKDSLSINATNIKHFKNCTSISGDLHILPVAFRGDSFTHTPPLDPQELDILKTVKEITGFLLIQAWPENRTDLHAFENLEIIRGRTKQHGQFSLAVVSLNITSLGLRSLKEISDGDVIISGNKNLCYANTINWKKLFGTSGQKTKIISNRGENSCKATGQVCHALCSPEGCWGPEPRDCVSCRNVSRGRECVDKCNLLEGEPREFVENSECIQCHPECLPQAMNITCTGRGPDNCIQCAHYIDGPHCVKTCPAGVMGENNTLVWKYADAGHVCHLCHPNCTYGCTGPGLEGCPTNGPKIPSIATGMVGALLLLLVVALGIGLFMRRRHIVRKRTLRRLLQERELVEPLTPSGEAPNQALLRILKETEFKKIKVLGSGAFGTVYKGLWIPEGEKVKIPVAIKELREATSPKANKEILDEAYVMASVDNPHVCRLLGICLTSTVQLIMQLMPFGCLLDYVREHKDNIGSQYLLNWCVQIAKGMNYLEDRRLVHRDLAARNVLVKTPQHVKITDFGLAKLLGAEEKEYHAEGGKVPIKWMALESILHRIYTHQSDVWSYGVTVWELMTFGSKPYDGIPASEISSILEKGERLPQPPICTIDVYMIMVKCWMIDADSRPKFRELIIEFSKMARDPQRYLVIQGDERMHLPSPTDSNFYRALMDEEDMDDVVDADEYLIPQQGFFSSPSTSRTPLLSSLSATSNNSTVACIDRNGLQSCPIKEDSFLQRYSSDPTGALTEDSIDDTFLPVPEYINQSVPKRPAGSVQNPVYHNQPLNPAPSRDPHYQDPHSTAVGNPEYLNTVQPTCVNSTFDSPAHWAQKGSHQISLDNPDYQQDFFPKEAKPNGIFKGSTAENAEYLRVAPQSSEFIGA
Chain of EGFR del746_750 (P00533 other isoform, or with tags, fused parts or gaps del E746-A750): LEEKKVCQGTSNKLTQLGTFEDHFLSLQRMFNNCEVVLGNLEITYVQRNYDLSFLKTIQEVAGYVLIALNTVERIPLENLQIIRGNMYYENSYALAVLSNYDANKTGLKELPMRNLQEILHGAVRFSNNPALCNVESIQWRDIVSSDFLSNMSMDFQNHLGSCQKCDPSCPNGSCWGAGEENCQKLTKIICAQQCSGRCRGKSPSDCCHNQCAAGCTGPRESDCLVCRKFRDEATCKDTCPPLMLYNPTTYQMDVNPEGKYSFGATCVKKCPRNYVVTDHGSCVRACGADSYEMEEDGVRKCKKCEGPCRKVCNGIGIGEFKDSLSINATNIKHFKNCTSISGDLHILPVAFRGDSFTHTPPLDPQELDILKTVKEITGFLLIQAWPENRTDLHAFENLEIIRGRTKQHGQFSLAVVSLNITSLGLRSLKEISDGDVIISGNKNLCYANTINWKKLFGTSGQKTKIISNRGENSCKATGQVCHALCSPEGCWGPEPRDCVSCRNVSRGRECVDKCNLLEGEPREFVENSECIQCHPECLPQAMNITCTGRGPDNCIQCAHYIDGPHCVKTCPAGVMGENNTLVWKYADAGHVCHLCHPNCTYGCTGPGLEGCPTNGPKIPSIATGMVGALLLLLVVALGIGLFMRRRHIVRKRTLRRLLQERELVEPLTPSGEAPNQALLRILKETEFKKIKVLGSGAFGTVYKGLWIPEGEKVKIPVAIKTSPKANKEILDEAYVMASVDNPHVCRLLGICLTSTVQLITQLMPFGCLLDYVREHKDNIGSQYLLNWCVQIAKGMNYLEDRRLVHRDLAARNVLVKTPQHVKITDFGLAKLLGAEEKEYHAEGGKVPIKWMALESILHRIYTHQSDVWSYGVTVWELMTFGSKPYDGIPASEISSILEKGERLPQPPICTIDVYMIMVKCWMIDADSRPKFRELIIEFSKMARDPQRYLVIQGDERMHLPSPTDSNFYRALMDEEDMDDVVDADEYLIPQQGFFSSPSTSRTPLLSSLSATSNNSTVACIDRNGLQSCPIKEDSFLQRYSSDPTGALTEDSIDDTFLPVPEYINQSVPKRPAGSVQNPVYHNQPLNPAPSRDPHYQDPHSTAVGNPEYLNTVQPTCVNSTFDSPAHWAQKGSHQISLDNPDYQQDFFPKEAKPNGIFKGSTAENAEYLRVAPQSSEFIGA
Chain of EGFR (ErbB1) L858R (P00533 25-1210 L858R): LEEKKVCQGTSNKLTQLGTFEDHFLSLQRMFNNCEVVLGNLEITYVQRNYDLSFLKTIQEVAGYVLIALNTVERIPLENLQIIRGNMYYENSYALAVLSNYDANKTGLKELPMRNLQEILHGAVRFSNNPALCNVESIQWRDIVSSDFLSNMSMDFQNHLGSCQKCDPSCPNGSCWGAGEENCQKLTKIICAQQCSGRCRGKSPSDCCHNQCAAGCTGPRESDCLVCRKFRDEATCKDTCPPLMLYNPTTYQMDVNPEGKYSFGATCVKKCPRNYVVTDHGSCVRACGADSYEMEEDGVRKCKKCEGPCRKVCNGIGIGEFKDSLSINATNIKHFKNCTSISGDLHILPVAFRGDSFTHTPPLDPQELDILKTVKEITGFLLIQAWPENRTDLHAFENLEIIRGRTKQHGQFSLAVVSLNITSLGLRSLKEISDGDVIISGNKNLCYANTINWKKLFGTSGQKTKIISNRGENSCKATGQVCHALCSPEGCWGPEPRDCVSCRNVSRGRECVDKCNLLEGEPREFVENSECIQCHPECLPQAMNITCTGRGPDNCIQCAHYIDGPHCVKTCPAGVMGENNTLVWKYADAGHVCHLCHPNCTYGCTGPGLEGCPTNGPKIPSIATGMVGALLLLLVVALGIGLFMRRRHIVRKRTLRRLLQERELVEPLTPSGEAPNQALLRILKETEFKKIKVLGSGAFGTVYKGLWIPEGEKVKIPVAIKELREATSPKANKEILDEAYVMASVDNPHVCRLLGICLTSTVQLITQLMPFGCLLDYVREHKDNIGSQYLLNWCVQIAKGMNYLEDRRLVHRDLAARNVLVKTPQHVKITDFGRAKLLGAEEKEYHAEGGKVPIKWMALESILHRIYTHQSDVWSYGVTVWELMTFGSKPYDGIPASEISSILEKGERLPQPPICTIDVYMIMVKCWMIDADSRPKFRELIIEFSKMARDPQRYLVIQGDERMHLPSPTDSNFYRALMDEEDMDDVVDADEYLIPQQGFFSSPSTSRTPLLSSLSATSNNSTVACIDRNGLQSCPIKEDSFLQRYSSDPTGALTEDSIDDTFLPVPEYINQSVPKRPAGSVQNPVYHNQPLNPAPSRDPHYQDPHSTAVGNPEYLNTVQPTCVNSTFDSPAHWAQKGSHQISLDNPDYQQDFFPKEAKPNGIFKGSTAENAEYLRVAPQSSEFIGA

| Compound | inhibition at 0.1 µM (EGFR (ErbB1) L858R) [%] | inhibition at 0.1 µM (EGFR del746_750) [%] | inhibition at 0.1 µM (EGFR (ErbB1) T790M) [%] | inhibition at 0.1 µM (EGFR (ErbB1) L858R/T790M) [%] | inhibition at 0.1 µM (BTK) [%] | pIC50 (BTK) | pIC50 (OCI-Ly10 cells) |
| --- | --- | --- | --- | --- | --- | --- | --- |
| C=CC(=O)Nc1cccc(-c2cc(-c3ccccc3Cl)cc3cnc(N)nc23)c1 [C003, N-(3-(2-amino-6-(2-chlorophenyl)quinazolin-8-yl)phenyl)acrylamide] | > 50 | > 50 | < 50 | < 50 | > 50 | > 7.00 |  |
| C=CC(=O)Nc1cccc(-c2cc(-c3ccc(C(=O)Nc4ccccn4)cc3)cc3cncnc23)c1 [C008, 4-(8-(3-acrylamidophenyl)quinazolin-6-yl)-N-(pyridin-2-yl)benzamide] | < 50 | < 50 | < 50 | < 50 | > 50 | > 7.00 | > 7.30 |
| C=CC(=O)Nc1cccc(-c2cc(-c3ccccc3Cl)cc3cncnc23)c1 [C013, N-(3-(6-(2-chlorophenyl)quinazolin-8-yl)phenyl)acrylamide] | > 50 | > 50 | < 50 | < 50 | > 50 | > 7.00 |  |
| C=CC(=O)N1CCCC(c2cc(-c3ccc(C)nc3)cc3cnc(N)nc23)C1 (stereo not shown) [C042, 1-(3-(2-amino-6-(6-methylpyridin-3-yl)quinazolin-8-yl)piperidin-1-yl)prop-2-en-1-one] | < 50 | < 50 | < 50 | < 50 | < 50 |  |  |
| C=CC(=O)Nc1cccc(-c2cc(-c3ccc(C(=O)Nc4cccc(C(F)(F)F)c4)cc3)cc3cncnc23)c1 [C051, 4-(8-(3-acrylamidophenyl)quinazolin-6-yl)-N-(3-(trifluoromethyl)phenyl)benzamide] | > 50 | > 50 | > 50 | > 50 | > 50 | > 7.00 |  |

The next lines start with the values.

| inhibition at 0.1 µM (EGFR (ErbB1) L858R) [%] | inhibition at 0.1 µM (EGFR del746_750) [%] | inhibition at 0.1 µM (EGFR (ErbB1) T790M) [%] | inhibition at 0.1 µM (EGFR (ErbB1) L858R/T790M) [%] | inhibition at 0.1 µM (BTK) [%] | pIC50 (BTK) | pIC50 (OCI-Ly10 cells) | Compound |
| --- | --- | --- | --- | --- | --- | --- | --- |
| < 50 | < 50 | < 50 | < 50 | > 50 | > 7.00 | > 7.30 | C=CC(=O)Nc1cccc(-c2cc(-c3ccc(C(=O)Nc4ccccn4)cc3Cl)cc3cncnc23)c1 [C052, 4-(8-(3-acrylamidophenyl)quinazolin-6-yl)-3-chloro-N-(pyridin-2-yl)benzamide] |
| > 50 | > 50 | < 50 | < 50 | > 50 | > 7.00 |  | C=CC(=O)Nc1cccc(-c2cc(-c3cccc(F)c3)cc3cncnc23)c1 [C073, N-(3-(6-(3-fluorophenyl)quinazolin-8-yl)phenyl)acrylamide] |
| > 50 | > 50 | < 50 | < 50 | > 50 | > 7.00 |  | C=CC(=O)Nc1cccc(-c2cc(-c3ccccc3)cc3cnc(Nc4ccccc4)nc23)c1 [C074, N-(3-(6-phenyl-2-(phenylamino)quinazolin-8-yl)phenyl)acrylamide] |
| > 50 | > 50 | < 50 | < 50 | > 50 | > 7.00 |  | C=CC(=O)Nc1cccc(-c2cc(-c3cccnc3)cc3cnc(Nc4ccccc4)nc23)c1 [C076, N-(3-(2-(phenylamino)-6-(pyridin-3-yl)quinazolin-8-yl)phenyl)acrylamide] |
